Data from patent publication US9029370B2, “Substituted benzamide derivatives” (Hoffmann-La Roche Inc., priority 2011, dated 2015).
Counter-ions that a name gives are not always drawn.

What was measured:
rat TAAR1 = rat TAAR1 (Rattus norvegicus (Rat), UniProt Q923Y9); test: Radioligand binding assay on rat TAAR1; conditions: rat TAAR1, HEK-293 membranes; second value of the pair (line below); read-out: Ki (μM) mouse/rat
How it was run: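 Membranes from HEK293 cells stably expressing rat TAAR1 were incubated 1 hr at 4 °C with ^3[H]-(S)-4-[(ethyl-phenyl-amino)-methyl]-4,5-dihydro-oxazol-2-ylamine; nonspecific binding was defined with 10 μM unlabeled ligand. Compounds were tested at 10 pM to 10 μM in duplicate. Bound radioactivity was read by filtration and scintillation counting.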

mouse TAAR1 = mouse TAAR1 (Mus musculus (Mouse), UniProt Q923Y8); test: Radioligand binding assay on mouse TAAR1; conditions: mouse TAAR1, HEK-293 membranes; first value of the pair (before the slash); read-out: Ki (μM) mouse/rat
Chain of mouse TAAR1 (Q923Y8 whole entry): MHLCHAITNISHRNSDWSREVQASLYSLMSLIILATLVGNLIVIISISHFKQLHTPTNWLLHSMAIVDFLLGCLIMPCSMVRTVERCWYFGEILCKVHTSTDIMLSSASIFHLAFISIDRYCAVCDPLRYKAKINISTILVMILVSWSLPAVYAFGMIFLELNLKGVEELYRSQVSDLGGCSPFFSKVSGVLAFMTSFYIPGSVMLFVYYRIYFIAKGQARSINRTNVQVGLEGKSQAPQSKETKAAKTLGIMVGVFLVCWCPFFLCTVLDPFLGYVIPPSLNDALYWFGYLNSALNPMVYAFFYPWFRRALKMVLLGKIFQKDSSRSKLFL
How it was run: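 Membranes from HEK293 cells stably expressing mouse TAAR1, in HEPES-NaOH pH 7.4 with 0.1 mM EDTA, were incubated 1 h at 4°C with tritiated (S)-4-[(ethyl-phenyl-amino)-methyl]-4,5-dihydro-oxazol-2-ylamine and compound (10 pM–10 μM, duplicates). Nonspecific binding defined with 10 μM unlabeled ligand; bound radioactivity by filtration and scintillation counting.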

Chain of rat TAAR1 (Q923Y9 whole entry): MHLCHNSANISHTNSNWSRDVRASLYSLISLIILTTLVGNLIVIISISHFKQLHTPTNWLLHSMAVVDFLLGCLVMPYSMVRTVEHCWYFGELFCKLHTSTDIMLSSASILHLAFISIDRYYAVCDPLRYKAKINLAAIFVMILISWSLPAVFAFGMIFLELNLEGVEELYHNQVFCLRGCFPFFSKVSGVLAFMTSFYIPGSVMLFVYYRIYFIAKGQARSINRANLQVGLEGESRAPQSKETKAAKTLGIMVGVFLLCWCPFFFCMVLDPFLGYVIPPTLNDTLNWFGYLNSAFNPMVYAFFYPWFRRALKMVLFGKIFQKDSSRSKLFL

Compound | Ki (rat TAAR1) [µM] | Ki (mouse TAAR1) [µM]
COc1cc(C(=O)Nc2ccc([C@H]3CNCCO3)cc2F)cc(C(N)=O)n1 [Example 120, (S)—N4-(2-Fluoro-4-(morpholin-2-yl)phenyl)-6-methoxypyridine-2,4-dicarboxamide hydrochloride] | 0.426 | 0.0851
O=C(Nc1ccc(C(F)(F)F)nc1)Nc1ccc([C@@H]2CNCCO2)cc1F [Example 10, 1-((R)-2-Fluoro-4-morpholin-2-yl-phenyl)-3-(6-trifluoromethyl-pyridin-3-yl)-urea] | 0.0033 | 0.0033
O=C(Nc1ccc([C@H]2CNCCO2)c(F)c1)c1cnc(C(F)(F)F)cn1 [Example 137, (S)—N-(3-Fluoro-4-(morpholin-2-yl)phenyl)-5-(trifluoromethyl)pyrazine-2-carboxamide hydrochloride] | 0.0301 | 0.0067
O=C(Nc1ccc(C(F)(F)F)nc1)Nc1ccc([C@H]2CNCCO2)cc1Cl [Example 50, (S)-1-(2-Chloro-4-(morpholin-2-yl)phenyl)-3-(6-(trifluoromethyl)pyridin-3-yl)urea] | 0.0014 | 0.0018
COc1ccc(C#N)cc1NC(=O)Nc1ccc([C@H]2CNCCO2)cc1Br [Example 58, 1-((S)-2-Bromo-4-morpholin-2-yl-phenyl)-3-(5-cyano-2-methoxy-phenyl)-urea] | 0.0161 | 0.0038
N#Cc1cc(Cl)cc(C(=O)Nc2ccc([C@H]3CNCCO3)c(F)c2)n1 [Example 133, (S)-4-Chloro-6-cyano-N-(3-fluoro-4-(morpholin-2-yl)phenyl)picolinamide hydrochloride] | 0.018 | 0.0095
